For this test, the target named is T1, AceR (Acinetobacter baumannii, UniProt P0DUU5).
T1 sequence (P0DUU5 84-297): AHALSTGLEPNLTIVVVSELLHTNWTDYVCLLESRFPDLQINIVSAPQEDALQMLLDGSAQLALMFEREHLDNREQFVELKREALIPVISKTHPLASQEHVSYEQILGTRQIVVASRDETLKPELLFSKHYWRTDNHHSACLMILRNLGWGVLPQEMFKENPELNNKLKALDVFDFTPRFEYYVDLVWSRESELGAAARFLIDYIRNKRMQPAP
The experiment in a line: SPR. In kind it is binding.

As to `[H]/N=C(\N/C(=N/[H])NCCCCCCNC(=N)NC(=N)Nc1ccc(Cl)cc1)Nc1ccc(Cl)cc1` [chlorhexidine], the affinity, expressed as Kd, was 62.3 µM.

Source of the values: PMC5961012 (Journal of Antimicrobial Chemotherapy, 2018).
